Article PMC5821946, “Immunomodulatory Effects of Diterpene Quinone Derivatives from the Roots of Horminum pyrenaicum in Human PBMC” (Oxidative Medicine and Cellular Longevity, 2018)

How the values were obtained:
[1] = tested on: neopterin formation by GTP-cyclohydrolase 1 (GTP-CH-I) in PBMC; test: Neopterin formation in PBMC supernatants (ELISA) after 48 h treatment; assay type: cell-based, human; details: PHA-stimulated PBMC; data not shown; insufficient repetitions for (1) and (3)
Experimental: The study was performed in accordance with the Declaration of Helsinki. PBMC were isolated from healthy donors who gave written consent that their donated blood may be used for scientific purposes, in case when it was not selected for transfusion. The PBMC were isolated by density gradient centrifugation as described earlier. After isolation, the cells were washed three times with phosphate buffered saline containing 1 μM ethylenediaminetetraacetic acid and subsequently they were maintained in RPMI 1640 (Sigma Aldrich, Vienna, Austria) supplemented with 2 mM L-glutamine, 10% heat-inactivated fetal calf serum (Biochrom, Germany) and 50 μg/mL gentamicin (Lonza-BioWhittaker, USA), at 37°C in a humidified atmosphere containing 5% CO2.
The cells were seeded in 48-well plates (1.5 × 10^6 cells/mL/well) and treated either with increasing concentrations of the extract, the individual fractions or the pure compounds, dissolved in DMSO. The PBMC were either stimulated with 10 μg/mL of the mitogen lectin phytohaemagglutin (PHA) after 30 minutes of treatment, or were left unstimulated. In addition to PHA, the stimulatability of the PBMC was controlled for each experiment by treatment with the lectin concanavalin A (ConA) at a concentration of 10 μg/mL. After 48 h of incubation, cell culture supernatants were collected and stored at −20°C until analysis. In addition, 1-methyl-D-tryptophan (Sigma-Aldrich, Vienna, Austria) was used as a postive control for the suppression of IDO-1 acitivity.
Neopterin concentrations were measured by ELISA (BRAHMS, Germany), according to the manufacturers' instructions with the detection limit of 2 nmol/L.
The half maximal (50% inhibitory) concentration (IC50) was calculated by using the CalcuSyn software (Biosoft, UK) according the concept of Chou and Talalay. […] P-values below 0.05 were considered to indicate significance. Results are expressed as percent of unstimulated and PHA-stimulated control cells and are shown as mean ± standard error of the mean (SEM).

[2] = biological target: T1, indoleamine 2,3-dioxygenase-1 (IDO-1) (Homo sapiens, UniProt P14902); test: Tryptophan breakdown to kynurenine (Kyn/Trp by HPLC) in PBMC supernatants after 48 h treatment; assay type: cell-based
T1 construct: PBMC were isolated from healthy donors who gave written consent that their donated blood may be used for scientific purposes; endogenous in cells; host or cells: primary human PBMC from healthy blood donors, stimulated with 10 μg/mL PHA
Experimental: The study was performed in accordance with the Declaration of Helsinki. PBMC were isolated from healthy donors who gave written consent that their donated blood may be used for scientific purposes, in case when it was not selected for transfusion. The PBMC were isolated by density gradient centrifugation as described earlier.
The PBMC were either stimulated with 10 μg/mL of the mitogen lectin phytohaemagglutin (PHA) after 30 minutes of treatment, or were left unstimulated. In addition to PHA, the stimulatability of the PBMC was controlled for each experiment by treatment with the lectin concanavalin A (ConA) at a concentration of 10 μg/mL. After 48 h of incubation, cell culture supernatants were collected and stored at −20°C until analysis. In addition, 1-methyl-D-tryptophan (Sigma-Aldrich, Vienna, Austria) was used as a postive control for the suppression of IDO-1 acitivity.
Briefly, the HPLC analysis of tryptophan and kynurenine was performed on a ProStar Varian system (USA) using rp-18 columns (Merck, Germany) and acetate buffer as eluent (flow-rate: 0.9 mL/min) according to the protocol described earlier. 3-Nitro-L-tyrosine (Sigma Aldrich, Austria) was used as an internal standard. Kynurenine and tryptophan standards were purchased from Sigma-Aldrich (Austria). Kynurenine and 3-nitro-L-tyrosine were detected by UV-absorbance at 360 nm wavelength (Shimadzu SPD-6A UV detector, Austria), tryptophan was detected by its fluorescence with an excitation wavelength of 286 nm and an emission wavelength of 366 nm (ProStar 360 detector, Varian, USA). The Kyn/Trp was calculated, which is an estimate of IDO-1 activity and expressed in μmol Kyn / mmol Trp. The sensitivity of the measurements was 0.5 μmol/L kynurenine and 0.1 μmol/L tryptophan.
P-values below 0.05 were considered to indicate significance. Results are expressed as percent of unstimulated and PHA-stimulated control cells and are shown as mean ± standard error of the mean (SEM).

T1 sequence (P14902 whole entry): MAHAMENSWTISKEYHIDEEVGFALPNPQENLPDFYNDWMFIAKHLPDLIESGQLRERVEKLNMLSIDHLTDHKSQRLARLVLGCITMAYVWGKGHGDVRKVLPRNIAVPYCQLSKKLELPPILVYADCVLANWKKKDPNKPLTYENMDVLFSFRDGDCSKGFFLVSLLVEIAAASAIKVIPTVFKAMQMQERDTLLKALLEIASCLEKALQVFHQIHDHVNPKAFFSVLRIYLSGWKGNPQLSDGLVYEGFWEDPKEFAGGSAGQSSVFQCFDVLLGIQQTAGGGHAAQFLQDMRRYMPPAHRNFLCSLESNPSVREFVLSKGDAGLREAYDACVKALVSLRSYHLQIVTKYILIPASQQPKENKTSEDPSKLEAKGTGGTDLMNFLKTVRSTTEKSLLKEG

Structure (SMILES) | Inhibition of neopterin formation (in words) [1] | IC50 [2]
COC1=C(C(C)C)C(=O)c2c(O)cc3c(c2C1=O)C=CC(=O)C3(C)C [compound 3, agastaquinone] | no dose-dependent effect | 46.3 µM
CC(C)C1=C(O)C(=O)C2=C(C1=O)[C@H](O)C[C@H]1C(C)(C)CCC[C@]21C [compound 1, horminone] | inhibition of neopterin formation | 346 µM
COc1c(O)c2c(c(O)c1C(C)C)C(=O)C[C@H]1C(C)(C)CCC[C@]21C [compound 6, inuroyleanol] | no dose-dependent effect | 
CC(=O)O[C@@H]1C[C@H]2C(C)(C)CCC[C@]2(C)C2=C1C(=O)C(C(C)C)=C(O)C2=O [compound 2, 7-O-acetylhorminone] | inhibition of neopterin formation | 71.7 µM
COC1=C(C(C)C)C(=O)c2c(O)cc3c(c2C1=O)C=CCC3(C)C [compound 8, 3-deoxyagastaquinone] | inhibition of neopterin formation | 79.5 µM
C=C1[C@@H](C)CC[C@]2(C)c3c(O)c(OC)c(C(C)C)c(O)c3C(=O)C[C@@H]12 [compound 7, agastol] | minor | 165 µM
